Assay results published in patent US11795171B2, “Pyrrolotriazinones and imidazotriazinones as ubiquitin-specific protease 7 inhibitors” (Valo Health, Inc., priority 2014, dated 2023).
pIC50: −log10 of the molar value.

target: USP7 (Homo sapiens (Human), UniProt Q93009); assay: USP7 Assay B (Ubitquin-Rhodamine110 Assay); type: biochemical; conditions: Ub-Rh110 substrate 25 nM
Protocol: Stock compound solutions were stored at −20° C. as 10 mM in DMSO. […] Prestamped assay plates were allowed to come to room temperature on the day of the assay. For the screen, 100 nL of 2 mM was pre-dispensed for a final screening concentration of 10 μM (DMSO(fc)=0.5%). […] Unless otherwise indicated, all follow-up assays were run on triplecate plates. […] Pre-stamped with compounds were either not preincubated or preincubated with USP7 between 30 to 120 minutes prior to the addition of 10 μL of 2×Ub-Rh110 to compound plates. Plates were incubated stacked for either 23 or 45 minutes at room temperature before fluorescence was read on the Envision (Excitation at 485 nm and Emission at 535 nm; Perkin Elmer) or on the PheraSTAR (Excitation at 485 nm and Emission at 535 nm; BMG Labtech).
Data from USP7 Assays A and B were reported as percent inhibition (inh) compared with control wells based on the following equation: % inh=1−((FLU−AveLow)/(AveHigh−AveLow)) where FLU=measured Fluorescence (See Tables 2 and 3). AveLow=average Fluorescence of no enzyme control (n=16). AveHigh=average Fluorescence of DMSO control (n=16). IC50 values were determined by curve fitting of the standard 4 parameter logistic fitting algorithm included in the Activity Base software package: IDBS XE Designer Model205. Data is fitted using the Levenburg Marquardt algorithm.

Sequence of USP7 (Q93009 208-1102): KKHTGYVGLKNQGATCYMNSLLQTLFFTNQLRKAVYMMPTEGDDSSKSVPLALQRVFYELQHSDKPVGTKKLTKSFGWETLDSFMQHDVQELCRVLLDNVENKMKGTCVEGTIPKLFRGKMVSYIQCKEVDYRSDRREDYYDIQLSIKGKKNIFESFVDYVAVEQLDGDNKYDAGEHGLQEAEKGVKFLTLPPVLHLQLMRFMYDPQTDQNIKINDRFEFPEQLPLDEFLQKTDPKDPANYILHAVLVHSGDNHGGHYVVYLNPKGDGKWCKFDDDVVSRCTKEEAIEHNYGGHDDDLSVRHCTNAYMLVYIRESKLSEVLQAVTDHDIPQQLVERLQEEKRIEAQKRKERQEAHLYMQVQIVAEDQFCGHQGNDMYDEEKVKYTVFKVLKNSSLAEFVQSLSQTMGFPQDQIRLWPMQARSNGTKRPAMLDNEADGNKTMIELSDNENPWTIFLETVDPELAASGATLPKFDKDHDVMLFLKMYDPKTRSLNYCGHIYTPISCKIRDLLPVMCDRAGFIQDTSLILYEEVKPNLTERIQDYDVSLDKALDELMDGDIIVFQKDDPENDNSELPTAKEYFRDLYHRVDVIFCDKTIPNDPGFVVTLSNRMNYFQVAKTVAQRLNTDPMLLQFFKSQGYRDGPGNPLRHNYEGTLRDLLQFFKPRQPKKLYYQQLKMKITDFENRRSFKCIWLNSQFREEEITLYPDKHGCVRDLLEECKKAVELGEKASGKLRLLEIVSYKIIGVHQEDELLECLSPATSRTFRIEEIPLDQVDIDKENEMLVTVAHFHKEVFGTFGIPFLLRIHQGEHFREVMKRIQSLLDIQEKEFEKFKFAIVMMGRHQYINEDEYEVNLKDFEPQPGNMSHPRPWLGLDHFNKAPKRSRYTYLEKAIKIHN

| Compound | pIC50 |
| --- | --- |
| Cc1ccc(-c2cccc(C(=O)N3CCC(O)(Cn4cnn5cccc5c4=O)CC3)c2)s1 [Compound I-20, 3-((4-hydroxy-1-(3-(5-methylthiophen-2-yl)benzoyl)piperidin-4-yl)methyl)pyrrolo[2,1-f][1,2,4]triazin-4(3H)-one] | < 5.00 |
| CC(C)(c1ccccc1)c1ccc(C(=O)N2CCC(O)(Cn3cnn4cccc4c3=O)CC2)cc1 [Compound I-55, 3-((4-hydroxy-1-(4-(2-phenylpropan-2-yl)benzoyl)piperidin-4-yl)methyl)pyrrolo[2,1-f][1,2,4]triazin-4(3H)-one] | 5.00 to 6.00 |
| O=C(c1ccccc1-c1cccc(F)c1)N1CCC(O)(Cn2cnn3cccc3c2=O)CC1 [Compound I-4, 3-((1-(3′-fluoro-[1,1′-biphenyl]-2-carbonyl)-4-hydroxypiperidin-4-yl)methyl)pyrrolo[2,1-f][1,2,4]triazin-4(3H)-one] | < 5.00 |
| O=C(c1cccc(-c2ccccc2F)c1)N1CCC(O)(Cn2cnn3cccc3c2=O)CC1 [Compound I-29, 3-((1-(2′-fluoro-[1,1′-biphenyl]-3-carbonyl)-4-hydroxypiperidin-4-yl)methyl)pyrrolo[2,1-f][1,2,4]triazin-4(3H)-one] | 5.00 to 6.00 |
| Cc1cc(C)n(Cc2ccc(C(=O)N3CCC(O)(Cn4cnn5cccc5c4=O)CC3)cc2)n1 [Compound I-69, 3-((1-(4-((3,5-dimethyl-1H-pyrazol-1-yl)methyl)benzoyl)-4-hydroxypiperidin-4-yl)methyl)pyrrolo[2,1-f][1,2,4]triazin-4(3H)-one] | 5.00 to 6.00 |
| C[C@H](CC(=O)N1CCC(O)(Cn2cnn3cccc3c2=O)CC1)c1ccccc1 [Compound I-56, (R)-3-((4-hydroxy-1-(3-phenylbutanoyl)piperidin-4-yl)methyl)pyrrolo[2,1-f][1,2,4]triazin-4(3H)-one] | > 6.70 |
| O=C(Nc1cc2c(=O)n(CC3(O)CCN(C(=O)C4CC4)CC3)cnn2c1)c1csc(-c2ccccc2)n1 [Compound I-112, N-(3-((1-(cyclopropanecarbonyl)-4-hydroxypiperidin-4-yl)methyl)-4-oxo-3,4-dihydropyrrolo[2,1-f][1,2,4]triazin-6-yl)-2-phenylthiazole-4-carboxamide] | 5.00 to 6.00 |
| Cc1ccc(CNC(=O)Nc2cc3c(=O)n(CC4(O)CCN(C(=O)C5CC5)CC4)cnn3c2)cc1 [Compound I-92, 1-(3-((1-(cyclopropanecarbonyl)-4-hydroxypiperidin-4-yl)methyl)-4-oxo-3,4-dihydropyrrolo[2,1-f][1,2,4]triazin-6-yl)-3-(4-methylbenzyl)urea] | < 5.00 |
| O=C(Nc1cccc(F)c1)Nc1cc2c(=O)n(CC3(O)CCN(C(=O)C4CC4)CC3)cnn2c1 [Compound I-96, 1-(3-((1-(cyclopropanecarbonyl)-4-hydroxypiperidin-4-yl)methyl)-4-oxo-3,4-dihydropyrrolo[2,1-f][1,2,4]triazin-6-yl)-3-(3-fluorophenyl)urea] | < 5.00 |
| CC(CC(=O)N1CCC(O)(Cn2cnn3cccc3c2=O)CC1)n1cccc1 (centres unmarked) [Compound I-57, 3-((1-(3-(1H-pyrrol-1-yl)butanoyl)-4-hydroxypiperidin-4-yl)methyl)pyrrolo[2,1-f][1,2,4]triazin-4(3H)-one] | > 6.70 |
| COc1cccc(-c2ccc(C(=O)N3CCC(O)(Cn4cnn5cccc5c4=O)CC3)cc2)c1 [Compound I-35, 3-((4-hydroxy-1-(3′-methoxy-[1,1′-biphenyl]-4-carbonyl)piperidin-4-yl)methyl)pyrrolo[2,1-f][1,2,4]triazin-4(3H)-one] | < 5.00 |
| O=C(c1ccc(Sc2ccccc2)cc1)N1CCC(O)(Cn2cnn3cccc3c2=O)CC1 [Compound I-62, 3-((4-hydroxy-1-(4-(phenylthio)benzoyl)piperidin-4-yl)methyl)pyrrolo[2,1-f][1,2,4]triazin-4(3H)-one] | 5.00 to 6.00 |
| CCN(c1ccccc1)c1ccc(C(=O)N2CCC(O)(Cn3cnn4cccc4c3=O)CC2)cc1 [Compound I-72, 3-((1-(4-(ethyl(phenyl)amino)benzoyl)-4-hydroxypiperidin-4-yl)methyl)pyrrolo[2,1-f][1,2,4]triazin-4(3H)-one] | 5.00 to 6.00 |
| Cc1ccc2cc(-c3ccc(C(=O)N4CCC(O)(Cn5cnn6cccc6c5=O)CC4)cc3)ccc2n1 [Compound I-45, 3-((4-hydroxy-1-(4-(2-methylquinolin-6-yl)benzoyl)piperidin-4-yl)methyl)pyrrolo[2,1-f][1,2,4]triazin-4(3H)-one] | 5.00 to 6.00 |
| COc1cc(OC)cc(-c2ccc(C(=O)N3CCC(O)(Cn4cnn5cccc5c4=O)CC3)cc2)c1 [Compound I-44, 3-((1-(3′,5′-dimethoxy-[1,1′-biphenyl]-4-carbonyl)-4-hydroxypiperidin-4-yl)methyl)pyrrolo[2,1-f][1,2,4]triazin-4(3H)-one] | < 5.00 |
| Cn1cnc2cc(-c3ccc(C(=O)N4CCC(O)(Cn5cnn6cccc6c5=O)CC4)cc3)ccc21 [Compound I-46, 3-((4-hydroxy-1-(4-(1-methyl-1H-benzo[d]imidazol-5-yl)benzoyl)piperidin-4-yl)methyl)pyrrolo[2,1-f][1,2,4]triazin-4(3H)-one] | < 5.00 |
| Cc1ccc(-c2cccc(C(=O)N3CCC(O)(Cn4cnn5cccc5c4=O)CC3)c2)cc1C [Compound I-17, 3-((1-(3′,4′-dimethyl-[1,1′-biphenyl]-3-carbonyl)-4-hydroxypiperidin-4-yl)methyl)pyrrolo[2,1-f][1,2,4]triazin-4(3H)-one] | < 5.00 |
| C[C@@H](NC(=O)Nc1cc2c(=O)n(CC3(O)CCN(C(=O)C4CC4)CC3)cnn2c1)c1ccccc1 [Compound I-95, (R)-1-(3-((1-(cyclopropanecarbonyl)-4-hydroxypiperidin-4-yl)methyl)-4-oxo-3,4-dihydropyrrolo[2,1-f][1,2,4]triazin-6-yl)-3-(1-phenylethyl)urea] | < 5.00 |
| O=C(c1ccc(Oc2ccccc2)cc1)N1CCC(O)(Cn2cnn3cccc3c2=O)CC1 [Compound I-80, 3-((4-hydroxy-1-(4-phenoxybenzoyl)piperidin-4-yl)methyl)pyrrolo[2,1-f][1,2,4]triazin-4(3H)-one] | < 5.00 |
| O=C(c1cccc(-c2ccc3ncccc3c2)c1)N1CCC(O)(Cn2cnn3cccc3c2=O)CC1 [Compound I-21, 3-((4-hydroxy-1-(3-(quinolin-6-yl)benzoyl)piperidin-4-yl)methyl)pyrrolo[2,1-f][1,2,4]triazin-4(3H)-one] | 5.00 to 6.00 |
| CC(CC(=O)Nc1cc2c(=O)n(CC3(O)CCN(C(=O)C4CC4)CC3)cnn2c1)c1ccc(Cl)cc1 (centres unmarked) [Compound I-113, 3-(4-chlorophenyl)-N-(3-((1-(cyclopropanecarbonyl)-4-hydroxypiperidin-4-yl)methyl)-4-oxo-3,4-dihydropyrrolo[2,1-f][1,2,4]triazin-6-yl)butanamide] | < 5.00 |
| CN(C)C(=O)c1ccc(-c2ccc(C(=O)N3CCC(O)(Cn4cnn5cccc5c4=O)CC3)c(Cl)c2)cc1 [Compound I-78, 3′-chloro-4′-(4-hydroxy-4-((4-oxopyrrolo[2,1-f][1,2,4]triazin-3(4H)-yl)methyl)piperidine-1-carbonyl)-N,N-dimethyl-[1,1′-biphenyl]-4-carboxamide] | < 5.00 |
| Cc1ccc2c(=O)n(CC3(O)CCN(C(=O)C(C)Cc4ccccc4)CC3)cnn12 (centres unmarked) [Compound I-77, 3-((4-hydroxy-1-(2-methyl-3-phenylpropanoyl)piperidin-4-yl)methyl)-7-methylpyrrolo[2,1-f][1,2,4]triazin-4(3H)-one] | 5.00 to 6.00 |
| COc1ccc(-c2cccc(C(=O)N3CCC(O)(Cn4cnn5cccc5c4=O)CC3)c2)cc1 [Compound I-8, 3-((4-hydroxy-1-(4′-methoxy-[1,1′-biphenyl]-3-carbonyl)piperidin-4-yl)methyl)pyrrolo[2,1-f][1,2,4]triazin-4(3H)-one] | 5.00 to 6.00 |
| O=C(c1cccc(-c2ccc3scnc3c2)c1)N1CCC(O)(Cn2cnn3cccc3c2=O)CC1 [Compound I-23, 3-((1-(3-(benzo[d]thiazol-5-yl)benzoyl)-4-hydroxypiperidin-4-yl)methyl)pyrrolo[2,1-f][1,2,4]triazin-4(3H)-one] | 5.00 to 6.00 |
| O=C(NCc1ccccc1F)Nc1cc2c(=O)n(CC3(O)CCN(C(=O)C4CC4)CC3)cnn2c1 [Compound I-94, 1-(3-((1-(cyclopropanecarbonyl)-4-hydroxypiperidin-4-yl)methyl)-4-oxo-3,4-dihydropyrrolo[2,1-f][1,2,4]triazin-6-yl)-3-(2-fluorobenzyl)urea] | < 5.00 |
| O=C(Nc1cccc(Cl)c1)Nc1cc2c(=O)n(CC3(O)CCN(C(=O)C4CC4)CC3)cnn2c1 [Compound I-85, 1-(3-chlorophenyl)-3-(3-((1-(cyclopropanecarbonyl)-4-hydroxypiperidin-4-yl)methyl)-4-oxo-3,4-dihydropyrrolo[2,1-f][1,2,4]triazin-6-yl)urea] | < 5.00 |
| O=C(c1ccc(-c2ccc3ocnc3c2)cc1)N1CCC(O)(Cn2cnn3cccc3c2=O)CC1 [Compound I-47, 3-((1-(4-(benzo[d]oxazol-5-yl)benzoyl)-4-hydroxypiperidin-4-yl)methyl)pyrrolo[2,1-f][1,2,4]triazin-4(3H)-one] | < 5.00 |
| N#Cc1ccc(NC(=O)Nc2cc3c(=O)n(CC4(O)CCN(C(=O)C5CC5)CC4)cnn3c2)cc1 [Compound I-100, 1-(4-cyanophenyl)-3-(3-((1-(cyclopropanecarbonyl)-4-hydroxypiperidin-4-yl)methyl)-4-oxo-3,4-dihydropyrrolo[2,1-f][1,2,4]triazin-6-yl)urea] | < 5.00 |
